Results on one compound are retold here after US10292382B2, “No-spin cryopreservation technique and resulting products” (Biopredic International, priority 2014, dated 2019).

Series [1] concerns cells. The following applies: above 4° C.; cited from earlier work.
The subject of series [2] is Fresh human hepatocytes.
Experimental: In this Example, testing was carried out to determine the effect of different concentrations of DMSO (0 to 2%) on the cell plateability/attachment using the inventive, direct NS plating method.
Fresh human hepatocytes having 78% viability, corresponding generally to customary thawed cell viability, were plated with DMSO in concentrations ranging from 0 to 2%. The cells were plated without Percoll density gradient centrifugation for both classical and NS methods. The cell seeding density was 0.37 million cells/well (MW24 plate) for both classical & NS methods. The cells were evaluated for cell morphology, plateability, and metabolic activity.
The DMSO, as a cryoprotectant included in freezing medium, has been tested at final concentrations up to 2% in the cell plating medium.

For the compound `C[S+](C)[O-]` [DMSO, dimethyl sulfoxide], the “DMSO concentration demonstrated to be toxic” value in series [1] is listed as “up to 2%”. Besides, the “maximum tolerated DMSO percentage in hepatocyte-NS plating medium for cell attachment” value in series [2] was “less than 1 % (v/v)”.
